From PubChem BioAssay AID2060331 (Molecular Pharmacology Branch, DTP, NCI, 2025)

Tested on: Hs578T multi-cell spheroids, viability
Experiment: Anticancer human tumor Hs578T cell line growth inhibition [IpAb];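 further: drug exposure lasted 7 days before readout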
Conditions: for IC50: curve of first compound; for viability, T/C: stronger effect = lower value
Outline: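 Combinations with ipatasertib or abemaciclib were tested on tumour spheroids holding HUVEC (25%) and MSC (15%) alongside 60% malignant cells. Top concentration was at or near clinical Cmax (10 microM if undefined), descending in half-log steps.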

[1] = second compound 0.01 µM, first compound 0.0316 µM
[2] = second compound 0.01 µM, first compound 0.1 µM
[3] = second compound 0.01 µM, first compound 0.316 µM
[4] = second compound 0.01 µM, first compound 1 µM
[5] = second compound 0.01 µM, first compound 3.16 µM
[6] = second compound 0.01 µM, first compound 10 µM
[7] = second compound 0.0316 µM, first compound 0.0316 µM
[8] = second compound 0.0316 µM, first compound 0.1 µM
[9] = second compound 0.0316 µM, first compound 0.316 µM
[10] = second compound 0.0316 µM, first compound 1 µM
[11] = second compound 0.0316 µM, first compound 3.16 µM
[12] = second compound 0.0316 µM, first compound 10 µM
[13] = second compound 0.1 µM, first compound 0.0316 µM
[14] = second compound 0.1 µM, first compound 0.1 µM
[15] = second compound 0.1 µM, first compound 0.316 µM
[16] = second compound 0.1 µM, first compound 1 µM
[17] = second compound 0.1 µM, first compound 3.16 µM
[18] = second compound 0.1 µM, first compound 10 µM
[19] = second compound 0.316 µM, first compound 0.0316 µM
[20] = second compound 0.316 µM, first compound 0.1 µM
[21] = second compound 0.316 µM, first compound 0.316 µM
[22] = second compound 0.316 µM, first compound 1 µM
[23] = second compound 0.316 µM, first compound 3.16 µM
[24] = second compound 0.316 µM, first compound 10 µM
[25] = second compound 1 µM, first compound 0.0316 µM
[26] = second compound 1 µM, first compound 0.1 µM
[27] = second compound 1 µM, first compound 0.316 µM
[28] = second compound 1 µM, first compound 1 µM
[29] = second compound 1 µM, first compound 3.16 µM
[30] = second compound 1 µM, first compound 10 µM

C=CCn1c(=O)c2cnc(Nc3ccc(N4CCN(C)CC4)cc3)nc2n1-c1cccc(C(C)(C)O)n1 + CCN1CCN(Cc2ccc(Nc3ncc(F)c(-c4cc(F)c5nc(C)n(C(C)C)c5c4)n3)nc2)CC1
IC50 (second compound 0.01 µM): 366 nM | IC50 (second compound 0.0316 µM): 376 nM | IC50 (second compound 0.1 µM): 459 nM | IC50 (second compound 0.316 µM): 1260 nM | IC50 (second compound 1 µM): 2140 nM | viability, T/C [1]: 92.1% | viability, T/C [2]: 86.3% | viability, T/C [3]: 51.9% | viability, T/C [4]: 27.9% | viability, T/C [5]: 16.8% | viability, T/C [6]: 17.2% | viability, T/C [7]: 86.3% | viability, T/C [8]: 75.3% | viability, T/C [9]: 53% | viability, T/C [10]: 31.9% | viability, T/C [11]: 21.2% | viability, T/C [12]: 17.4% | viability, T/C [13]: 82.6% | viability, T/C [14]: 72.2% | viability, T/C [15]: 57.1% | viability, T/C [16]: 36.4% | viability, T/C [17]: 24.9% | viability, T/C [18]: 19.2% | viability, T/C [19]: 80.4% | viability, T/C [20]: 76.9% | viability, T/C [21]: 69% | viability, T/C [22]: 55.6% | viability, T/C [23]: 32.3% | viability, T/C [24]: 21.4% | viability, T/C [25]: 94.4% | viability, T/C [26]: 92.9% | viability, T/C [27]: 79.4% | viability, T/C [28]: 65% | viability, T/C [29]: 42.5% | viability, T/C [30]: 24%

CC(C)n1nc(-c2ccc3oc(N)nc3c2)c2c(N)ncnc21 + CCN1CCN(Cc2ccc(Nc3ncc(F)c(-c4cc(F)c5nc(C)n(C(C)C)c5c4)n3)nc2)CC1
IC50 (second compound 0.01 µM): 7.78 nM | IC50 (second compound 0.0316 µM): 5.53 nM | IC50 (second compound 0.1 µM): 5.64 nM | IC50 (second compound 0.316 µM): 5.59 nM | IC50 (second compound 1 µM): 10.1 nM | viability, T/C (second compound 0.01 µM, first compound 0.000316 µM): 94.1% | viability, T/C (second compound 0.01 µM, first compound 0.001 µM): 88.5% | viability, T/C (second compound 0.01 µM, first compound 0.00316 µM): 69.6% | viability, T/C (second compound 0.01 µM, first compound 0.01 µM): 46.2% | viability, T/C [1]: 19.9% | viability, T/C [2]: 13.2% | viability, T/C (second compound 0.0316 µM, first compound 0.000316 µM): 87.5% | viability, T/C (second compound 0.0316 µM, first compound 0.001 µM): 72.3% | viability, T/C (second compound 0.0316 µM, first compound 0.00316 µM): 63.2% | viability, T/C (second compound 0.0316 µM, first compound 0.01 µM): 39.8% | viability, T/C [7]: 18.3% | viability, T/C [8]: 14.9% | viability, T/C (second compound 0.1 µM, first compound 0.000316 µM): 78.8% | viability, T/C (second compound 0.1 µM, first compound 0.001 µM): 78.1% | viability, T/C (second compound 0.1 µM, first compound 0.00316 µM): 59.1% | viability, T/C (second compound 0.1 µM, first compound 0.01 µM): 40.8% | viability, T/C [13]: 18.7% | viability, T/C [14]: 15.2% | viability, T/C (second compound 0.316 µM, first compound 0.000316 µM): 82% | viability, T/C (second compound 0.316 µM, first compound 0.001 µM): 76.2% | viability, T/C (second compound 0.316 µM, first compound 0.00316 µM): 59% | viability, T/C (second compound 0.316 µM, first compound 0.01 µM): 40.6% | viability, T/C [19]: 23.1% | viability, T/C [20]: 15.8% | viability, T/C (second compound 1 µM, first compound 0.000316 µM): 93.5% | viability, T/C (second compound 1 µM, first compound 0.001 µM): 90.6% | viability, T/C (second compound 1 µM, first compound 0.00316 µM): 69% | viability, T/C (second compound 1 µM, first compound 0.01 µM): 48.8% | viability, T/C [25]: 34.9% | viability, T/C [26]: 19.8%

CC1(C)CCC(CN2CCN(c3ccc(C(=O)NS(=O)(=O)c4ccc(NCC5CCOCC5)c([N+](=O)[O-])c4)c(Oc4cnc5[nH]ccc5c4)c3)CC2)=C(c2ccc(Cl)cc2)C1 + CCN1CCN(Cc2ccc(Nc3ncc(F)c(-c4cc(F)c5nc(C)n(C(C)C)c5c4)n3)nc2)CC1
IC50 (second compound 0.01 µM): 5960 nM | IC50 (second compound 0.0316 µM): 5580 nM | IC50 (second compound 0.1 µM): 5500 nM | IC50 (second compound 0.316 µM): 5710 nM | IC50 (second compound 1 µM): 6840 nM | viability, T/C [1]: 93.3% | viability, T/C [2]: 107% | viability, T/C [3]: 103% | viability, T/C [4]: 99.8% | viability, T/C [5]: 90.4% | viability, T/C [6]: 16.8% | viability, T/C [7]: 96.4% | viability, T/C [8]: 97% | viability, T/C [9]: 98.1% | viability, T/C [10]: 91.1% | viability, T/C [11]: 81% | viability, T/C [12]: 18.6% | viability, T/C [13]: 87.2% | viability, T/C [14]: 95.3% | viability, T/C [15]: 84.6% | viability, T/C [16]: 90.9% | viability, T/C [17]: 76.7% | viability, T/C [18]: 20.8% | viability, T/C [19]: 86.3% | viability, T/C [20]: 89.1% | viability, T/C [21]: 80.6% | viability, T/C [22]: 87.4% | viability, T/C [23]: 80.2% | viability, T/C [24]: 21.3% | viability, T/C [25]: 96.5% | viability, T/C [26]: 98.2% | viability, T/C [27]: 91.8% | viability, T/C [28]: 96.7% | viability, T/C [29]: 101% | viability, T/C [30]: 26.9%

CCCS(=O)(=O)Nc1ccc(F)c(C(=O)c2c[nH]c3ncc(-c4ccc(Cl)cc4)cc23)c1F + CCN1CCN(Cc2ccc(Nc3ncc(F)c(-c4cc(F)c5nc(C)n(C(C)C)c5c4)n3)nc2)CC1
IC50 (second compound 0.01 µM): 4380 nM | IC50 (second compound 0.0316 µM): 4190 nM | IC50 (second compound 0.1 µM): 4320 nM | IC50 (second compound 0.316 µM): 4670 nM | IC50 (second compound 1 µM): 5520 nM | viability, T/C [1]: 96.9% | viability, T/C [2]: 103% | viability, T/C [3]: 99.1% | viability, T/C [4]: 97.4% | viability, T/C [5]: 67% | viability, T/C [6]: 8.02% | viability, T/C [7]: 95.3% | viability, T/C [8]: 100% | viability, T/C [9]: 98.6% | viability, T/C [10]: 92.4% | viability, T/C [11]: 64.4% | viability, T/C [12]: 5.43% | viability, T/C [13]: 90.8% | viability, T/C [14]: 87.6% | viability, T/C [15]: 87.1% | viability, T/C [16]: 82.5% | viability, T/C [17]: 66.4% | viability, T/C [18]: 6.9% | viability, T/C [19]: 92.4% | viability, T/C [20]: 89.5% | viability, T/C [21]: 87.8% | viability, T/C [22]: 79.9% | viability, T/C [23]: 71.7% | viability, T/C [24]: 11.4% | viability, T/C [25]: 106% | viability, T/C [26]: 97.4% | viability, T/C [27]: 102% | viability, T/C [28]: 104% | viability, T/C [29]: 87.1% | viability, T/C [30]: 10.3%

Cn1cnc2c(F)c(Nc3ccc(Br)cc3Cl)c(C(=O)NOCCO)cc21 + CCN1CCN(Cc2ccc(Nc3ncc(F)c(-c4cc(F)c5nc(C)n(C(C)C)c5c4)n3)nc2)CC1
IC50 (second compound 0.01 µM): 2980 nM | IC50 (second compound 0.0316 µM): 2000 nM | IC50 (second compound 0.1 µM): 1470 nM | IC50 (second compound 0.316 µM): 2020 nM | IC50 (second compound 1 µM): > 3000 nM | viability, T/C (second compound 0.01 µM, first compound 0.00949 µM): 98.5% | viability, T/C (second compound 0.01 µM, first compound 0.03 µM): 95% | viability, T/C (second compound 0.01 µM, first compound 0.0949 µM): 82.1% | viability, T/C (second compound 0.01 µM, first compound 0.3 µM): 87.5% | viability, T/C (second compound 0.01 µM, first compound 0.949 µM): 69.4% | viability, T/C (second compound 0.01 µM, first compound 3 µM): 49.2% | viability, T/C (second compound 0.0316 µM, first compound 0.00949 µM): 88.3% | viability, T/C (second compound 0.0316 µM, first compound 0.03 µM): 77% | viability, T/C (second compound 0.0316 µM, first compound 0.0949 µM): 72.2% | viability, T/C (second compound 0.0316 µM, first compound 0.3 µM): 79.4% | viability, T/C (second compound 0.0316 µM, first compound 0.949 µM): 67.1% | viability, T/C (second compound 0.0316 µM, first compound 3 µM): 40.8% | viability, T/C (second compound 0.1 µM, first compound 0.00949 µM): 79.6% | viability, T/C (second compound 0.1 µM, first compound 0.03 µM): 70.6% | viability, T/C (second compound 0.1 µM, first compound 0.0949 µM): 77.7% | viability, T/C (second compound 0.1 µM, first compound 0.3 µM): 65.5% | viability, T/C (second compound 0.1 µM, first compound 0.949 µM): 58.3% | viability, T/C (second compound 0.1 µM, first compound 3 µM): 38.1% | viability, T/C (second compound 0.316 µM, first compound 0.00949 µM): 77.3% | viability, T/C (second compound 0.316 µM, first compound 0.03 µM): 74% | viability, T/C (second compound 0.316 µM, first compound 0.0949 µM): 68.3% | viability, T/C (second compound 0.316 µM, first compound 0.3 µM): 68.3% | viability, T/C (second compound 0.316 µM, first compound 0.949 µM): 56.2% | viability, T/C (second compound 0.316 µM, first compound 3 µM): 46% | viability, T/C (second compound 1 µM, first compound 0.00949 µM): 89.8% | viability, T/C (second compound 1 µM, first compound 0.03 µM): 89.7% | viability, T/C (second compound 1 µM, first compound 0.0949 µM): 78.9% | viability, T/C (second compound 1 µM, first compound 0.3 µM): 75.3% | viability, T/C (second compound 1 µM, first compound 0.949 µM): 69.2% | viability, T/C (second compound 1 µM, first compound 3 µM): 53%
